The results in this text go back to patent US12503436B2, “Compounds and compositions for treating conditions associated with STING activity” (NOVARTIS PHARMA AG, priority 2021, dated 2025).

Structures are written as SMILES.

The target in the assay is STING (Homo sapiens, UniProt Q86WV6, G230A/H232R/R293Q/R71H). The assay can be described thus: STING reporter assay in THP1-Dual KO-IFNAR2 cells (2′3′cGAMP stimulation, luciferase reporter). Format: cell-based. To be noted: 15 μM 2′3′cGAMP stimulation, 24 h, read-out: Pharmaron, THP1_IFNAR2 STING 24 h Luci Normalized: GeoMean EC50. The gist of the method: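 THP1-Dual KO-IFNAR2 cells (2×10E6 cells/mL) with compounds at 0.0017-100 μM final, stimulated with 15 μM final 2′3′cGAMP delivered by Lipofectamine 2000; 24 h at 37 °C. Luciferase in supernatant read with QUANTI-Luc Plus; EC50 derived from luminescence.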
Sequence of STING (Q86WV6 whole entry R71H/G230A/H232R/R293Q): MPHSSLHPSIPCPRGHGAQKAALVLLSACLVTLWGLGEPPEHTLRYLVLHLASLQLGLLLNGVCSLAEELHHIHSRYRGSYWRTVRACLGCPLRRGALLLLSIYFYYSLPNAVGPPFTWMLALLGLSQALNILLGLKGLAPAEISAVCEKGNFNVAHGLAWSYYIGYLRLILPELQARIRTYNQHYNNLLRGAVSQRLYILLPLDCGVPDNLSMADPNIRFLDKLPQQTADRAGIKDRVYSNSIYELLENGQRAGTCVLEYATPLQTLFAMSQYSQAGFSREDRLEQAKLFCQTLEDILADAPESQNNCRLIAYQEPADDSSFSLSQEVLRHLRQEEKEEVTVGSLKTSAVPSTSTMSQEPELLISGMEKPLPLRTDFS
Background: In a reporter assay the amount or activity of a reporter protein is the signal.
Regarding `CO[C@H]1C[C@@](C)(C(=O)Nc2c[nH]c3ccc(OCC[C@@H]4C[C@@H]5CN(CC(F)(F)F)C[C@@H]5C4)cc23)C1` [Compound 515, (1s,3S)-3-methoxy-1-methyl-N-(5-(2-((3aR,5r,6aS)-2-(2,2,2-trifluoroethyl)octahydrocyclopenta[c]pyrrol-5-yl)ethoxy)-1H-indol-3-yl)cyclobutane-1-carboxamide], the half-maximal effective concentration (EC50) was 1000 to 5000 nM.

On to `CC(=O)Nc1c[nH]c2ccc(CC(Cc3ccc(C(F)(F)F)cc3)NC(C)=O)cc12` (stereo not drawn) [Compound 516, N-(1-(3-acetamido-1H-indol-5-yl)-3-(4-(trifluoromethyl)phenyl)propan-2-yl)acetamide], for which the EC50 lay within 5000 to 100000 nM.

Take `CC(=O)Nc1c[nH]c2ccc(CC(N)Cc3ccc(C(F)(F)F)cc3)cc12` (stereo not drawn) [Compound 517, N-(5-(2-amino-3-(4-(trifluoromethyl)phenyl)propyl)-1H-indol-3-yl)acetamide]: the EC50 fell in the range of 5000 to 100000 nM.

In the case of `O=C(Nc1c[nH]c2ccc(O[C@H]3C[C@H](c4ccc(C(F)(F)F)cc4)C3)cc12)C1COC1` [Compound 518, N-(5-(trans-3-(4-(trifluoromethyl)phenyl)cyclobutoxy)-1H-indol-3-yl)oxetane-3-carboxamide], the EC50 is 200 to 1000 nM.

Take `CC(C)(O)CC(=O)Nc1c[nH]c2ccc(OCCc3ccc(C(F)(F)F)cc3)cc12` [Compound 519, 3-hydroxy-3-methyl-N-(5-(4-(trifluoromethyl)phenethoxy)-1H-indol-3-yl)butanamide]: the EC50 is 40 to 200 nM.

Turning to `COCCCC(=O)Nc1c[nH]c2ccc(OCC[C@@H]3C[C@@H]4CN(CC(F)(F)F)C[C@@H]4C3)cc12` [Compound 520, 4-methoxy-N-(5-(2-((3aR,5r,6aS)-2-(2,2,2-trifluoroethyl)octahydrocyclopenta[c]pyrrol-5-yl)ethoxy)-1H-indol-3-yl)butanamide], the half-maximal effective concentration (EC50) lay in the range of 40 to 200 nM.

As to `CC[C@H](O)C(=O)Nc1c[nH]c2ccc(OCC[C@@H]3C[C@@H]4CN(CC(F)(F)F)C[C@@H]4C3)cc12` [Compound 521, (S)-2-hydroxy-N-(5-(2-((3aR,5r,6aS)-2-(2,2,2-trifluoroethyl)octahydrocyclopenta[c]pyrrol-5-yl)ethoxy)-1H-indol-3-yl)butanamide], the EC50 lay within 200 to 1000 nM.

Consider `CC[C@@H](O)C(=O)Nc1c[nH]c2ccc(OCC[C@@H]3C[C@@H]4CN(CC(F)(F)F)C[C@@H]4C3)cc12` [Compound 522, (R)-2-hydroxy-N-(5-(2-((3aR,5r,6aS)-2-(2,2,2-trifluoroethyl)octahydrocyclopenta[c]pyrrol-5-yl)ethoxy)-1H-indol-3-yl)butanamide], for which the concentration for a half-maximal effect (EC50) lay within 40 to 200 nM.

Consider `CC(C)(O)CC(=O)Nc1c[nH]c2ccc(OCC[C@@H]3C[C@@H]4CN(CC(F)(F)F)C[C@@H]4C3)cc12` [Compound 523, 3-hydroxy-3-methyl-N-(5-(2-((3aR,5r,6aS)-2-(2,2,2-trifluoroethyl)octahydrocyclopenta[c]pyrrol-5-yl)ethoxy)-1H-indol-3-yl)butanamide], for which the EC50 lay in the range of 200 to 1000 nM.

For `CC1OC(C)C1C(=O)Nc1c[nH]c2ccc(OCCc3ccc(C(F)(F)F)cc3)cc12` (stereo not drawn) [Compound 525, 2,4-dimethyl-N-(5-(4-(trifluoromethyl)phenethoxy)-1H-indol-3-yl)oxetane-3-carboxamide], the EC50 lay within 200 to 1000 nM.

`CC(=O)Nc1c[nH]c2ccc(CCOc3ccc4ncccc4c3)cc12` [Compound 526, N-(5-(2-(quinolin-6-yloxy)ethyl)-1H-indol-3-yl)acetamide]: the half-maximal effective concentration (EC50) lay within 5000 to 100000 nM.

On to `COC(=O)C(Cc1ccc(C(F)(F)F)cc1)Cc1ccc2[nH]cc(NC(C)=O)c2c1` (stereo not drawn) [Compound 527, methyl 3-(3-acetamido-1H-indol-5-yl)-2-(4-(trifluoromethyl)benzyl)propanoate], for which the EC50 lay within 1000 to 5000 nM.

Regarding `CC1(C(=O)Nc2c[nH]c3ccc(OCc4ccc(C(F)(F)F)cc4)cc23)CCNCC1` [Compound 528, 4-methyl-N-(5-((4-(trifluoromethyl)benzyl)oxy)-1H-indol-3-yl)piperidine-4-carboxamide], the EC50 lay in the range of 5000 to 100000 nM.

`CC1(C(=O)Nc2c[nH]c3ccc(O[C@H]4C[C@@H](c5ccc(C(F)(F)F)cc5)C4)cc23)CCNCC1` [Compound 529, 4-methyl-N-(5-(cis-3-(4-(trifluoromethyl)phenyl)cyclobutoxy)-1H-indol-3-yl)piperidine-4-carboxamide]: the EC50 was 5000 to 100000 nM.

As to `C[C@]1(C(=O)Nc2c[nH]c3ccc(OCCc4ccc(C(F)(F)F)cc4)cc23)C[C@H](CO)C1` [Compound 530, trans-3-(hydroxymethyl)-1-methyl-N-(5-(4-(trifluoromethyl)phenethoxy)-1H-indol-3-yl)cyclobutane-1-carboxamide], the half-maximal effective concentration (EC50) was in the range of 40 to 200 nM.

`C[C@]1(C(=O)Nc2c[nH]c3ccc(OCCc4ccc(C(F)(F)F)cc4)cc23)C[C@@H](CO)C1` [Compound 531, cis-3-(hydroxymethyl)-1-methyl-N-(5-(4-(trifluoromethyl)phenethoxy)-1H-indol-3-yl)cyclobutane-1-carboxamide]: the concentration giving a half-maximal response (EC50) is 40 to 200 nM.

Regarding `CC(=O)Nc1c[nH]c2ccc(CC(Cc3ccc(C(F)(F)F)cc3)C(=O)O)cc12` (stereo not drawn) [Compound 532, 3-(3-acetamido-1H-indol-5-yl)-2-(4-(trifluoromethyl)benzyl)propanoic acid], the half-maximal effective concentration (EC50) fell in the range of 5000 to 100000 nM.

Regarding `O=C(Nc1c[nH]c2ccc(OCCc3ccc(C(F)(F)F)cc3)cc12)[C@H]1C[C@@H](CO)C1` [Compound 533, cis-3-(hydroxymethyl)-N-(5-(4-(trifluoromethyl)phenethoxy)-1H-indol-3-yl)cyclobutane-1-carboxamide], the half-maximal effective concentration (EC50) lay within 40 to 200 nM.

On to `O=C(Nc1c[nH]c2ccc(OCCc3ccc(C(F)(F)F)cc3)cc12)[C@H]1C[C@H](CO)C1` [Compound 534, trans-3-(hydroxymethyl)-N-(5-(4-(trifluoromethyl)phenethoxy)-1H-indol-3-yl)cyclobutane-1-carboxamide], for which the EC50 was in the range of 40 to 200 nM.

Consider `CC(=O)Nc1c[nH]c2ccc(CCOc3cccc(C(C)N(C)C)c3)cc12` (stereo not drawn) [Compound 536, N-(5-(2-(3-(1-(dimethylamino)ethyl)phenoxy)ethyl)-1H-indol-3-yl)acetamide], for which the concentration for a half-maximal effect (EC50) fell in the range of 5000 to 100000 nM.

On to `O=C(Nc1c[nH]c2ccc(O[C@H]3C[C@@H](c4ccc(C(F)(F)F)cc4)C3)cc12)C1CNC1` [Compound 537, N-(5-(cis-3-(4-(trifluoromethyl)phenyl)cyclobutoxy)-1H-indol-3-yl)azetidine-3-carboxamide], for which the EC50 lay in the range of 5000 to 100000 nM.

In the case of `CC(=O)Nc1c[nH]c2ccc(C(C)C[C@@H]3C[C@@H]4CN(CC(F)(F)F)C[C@@H]4C3)cc12` (stereo partly drawn) [Compound 538, N-(5-(1-((3aR,5r,6aS)-2-(2,2,2-trifluoroethyl)octahydrocyclopenta[c]pyrrol-5-yl)propan-2-yl)-1H-indol-3-yl)acetamide], the EC50 was in the range of 1000 to 5000 nM.

Regarding `CC(=O)Nc1c[nH]c2ccc(CCC[C@@H]3C[C@@H]4CN(CC(F)(F)F)C[C@@H]4C3)cc12` [Compound 539, N-(5-(3-((3aR,5r,6aS)-2-(2,2,2-trifluoroethyl)octahydrocyclopenta[c]pyrrol-5-yl)propyl)-1H-indol-3-yl)acetamide], the concentration giving a half-maximal response (EC50) fell in the range of 1000 to 5000 nM.

Consider `CC1(C(=O)Nc2c[nH]c3ccc(CC(O)Cc4ccc(C(F)(F)F)cn4)cc23)CC1` (stereo not drawn) [Compound 540, N-(5-(2-hydroxy-3-(5-(trifluoromethyl)pyridin-2-yl)propyl)-1H-indol-3-yl)-1-methylcyclopropane-1-carboxamide], for which the half-maximal effective concentration (EC50) lay in the range of 1000 to 5000 nM.

For the compound `CC(=O)Nc1c[nH]c2ccc(CCOc3cccnc3C(F)(F)F)cc12` [Compound 541, N-(5-(2-((2-(trifluoromethyl)pyridin-3-yl)oxy)ethyl)-1H-indol-3-yl)acetamide], the concentration giving a half-maximal response (EC50) fell in the range of 5000 to 100000 nM.

As for `CC1(C(=O)Nc2c[nH]c3ccc(OC[C@H]4C[C@@H]5CN(CC(F)(F)F)C[C@@H]5C4)cc23)COC1` [Compound 542, 3-methyl-N-(5-(((3aR,5s,6aS)-2-(2,2,2-trifluoroethyl)octahydrocyclopenta[c]pyrrol-5-yl)methoxy)-1H-indol-3-yl)oxetane-3-carboxamide], the EC50 fell in the range of 200 to 1000 nM.

For `CC(=O)Nc1c[nH]c2ccc(CCOc3ccc(C(F)(F)F)c(Br)c3)cc12` [Compound 543, N-(5-(2-(3-bromo-4-(trifluoromethyl)phenoxy)ethyl)-1H-indol-3-yl)acetamide], the half-maximal effective concentration (EC50) was in the range of 200 to 1000 nM.

As for `CC(=O)Nc1c[nH]c2ccc(CCOc3ccc(C(F)(F)F)cc3Br)cc12` [Compound 544, N-(5-(2-(2-bromo-4-(trifluoromethyl)phenoxy)ethyl)-1H-indol-3-yl)acetamide], the EC50 lay within 200 to 1000 nM.

On to `[2H][13C]([2H])([2H])C(=O)Nc1c[nH]c2ccc(CCOc3ccc(C(F)(F)F)cc3)cc12` [Compound 545, N-(5-(2-(4-(trifluoromethyl)phenoxy)ethyl)-1H-indol-3-yl)acetamide-2-13C-2,2,2-d3], for which the EC50 fell in the range of 40 to 200 nM.

Consider `CC(=O)Nc1c[nH]c2ccc(CCOc3ccc(C(F)(F)F)cc3)c(Br)c12` [Compound 546, N-(4-bromo-5-(2-(4-(trifluoromethyl)phenoxy)ethyl)-1H-indol-3-yl)acetamide], for which the concentration giving a half-maximal response (EC50) was 1000 to 5000 nM.

For `CC(=O)Nc1c[nH]c2ccc(CCOc3ccccc3OCC(F)(F)F)cc12` [Compound 547, N-(5-(2-(2-(2,2,2-trifluoroethoxy)phenoxy)ethyl)-1H-indol-3-yl)acetamide], the half-maximal effective concentration (EC50) fell in the range of 200 to 1000 nM.

For the compound `C=CCc1ccccc1OCCc1ccc2[nH]cc(NC(C)=O)c2c1` [Compound 548, N-(5-(2-(2-allylphenoxy)ethyl)-1H-indol-3-yl)acetamide], the EC50 is 200 to 1000 nM.

For the compound `CC(=O)CCc1ccc(OCCc2ccc3[nH]cc(NC(C)=O)c3c2)cc1` [Compound 549, N-(5-(2-(4-(3-oxobutyl)phenoxy)ethyl)-1H-indol-3-yl)acetamide], the concentration for a half-maximal effect (EC50) is 1000 to 5000 nM.

Broadly, the EC50 is the concentration giving half of the maximal effect.
